Assays:
holo-BpsA = target: T1, holo-BpsA (Streptomyces lavendulae, UniProt Q1MWN4); assay: Inhibition of indigoidine synthesis by pre-activated holo-BpsA (counter-screen); assay type: biochemical, S. lavendulae ATCC 11924; settings: pre-activated holo-BpsA in isolation
T1 construct: 6His; made in house; host or cells: E. coli
T1 sequence (Q1MWN4 1-1282): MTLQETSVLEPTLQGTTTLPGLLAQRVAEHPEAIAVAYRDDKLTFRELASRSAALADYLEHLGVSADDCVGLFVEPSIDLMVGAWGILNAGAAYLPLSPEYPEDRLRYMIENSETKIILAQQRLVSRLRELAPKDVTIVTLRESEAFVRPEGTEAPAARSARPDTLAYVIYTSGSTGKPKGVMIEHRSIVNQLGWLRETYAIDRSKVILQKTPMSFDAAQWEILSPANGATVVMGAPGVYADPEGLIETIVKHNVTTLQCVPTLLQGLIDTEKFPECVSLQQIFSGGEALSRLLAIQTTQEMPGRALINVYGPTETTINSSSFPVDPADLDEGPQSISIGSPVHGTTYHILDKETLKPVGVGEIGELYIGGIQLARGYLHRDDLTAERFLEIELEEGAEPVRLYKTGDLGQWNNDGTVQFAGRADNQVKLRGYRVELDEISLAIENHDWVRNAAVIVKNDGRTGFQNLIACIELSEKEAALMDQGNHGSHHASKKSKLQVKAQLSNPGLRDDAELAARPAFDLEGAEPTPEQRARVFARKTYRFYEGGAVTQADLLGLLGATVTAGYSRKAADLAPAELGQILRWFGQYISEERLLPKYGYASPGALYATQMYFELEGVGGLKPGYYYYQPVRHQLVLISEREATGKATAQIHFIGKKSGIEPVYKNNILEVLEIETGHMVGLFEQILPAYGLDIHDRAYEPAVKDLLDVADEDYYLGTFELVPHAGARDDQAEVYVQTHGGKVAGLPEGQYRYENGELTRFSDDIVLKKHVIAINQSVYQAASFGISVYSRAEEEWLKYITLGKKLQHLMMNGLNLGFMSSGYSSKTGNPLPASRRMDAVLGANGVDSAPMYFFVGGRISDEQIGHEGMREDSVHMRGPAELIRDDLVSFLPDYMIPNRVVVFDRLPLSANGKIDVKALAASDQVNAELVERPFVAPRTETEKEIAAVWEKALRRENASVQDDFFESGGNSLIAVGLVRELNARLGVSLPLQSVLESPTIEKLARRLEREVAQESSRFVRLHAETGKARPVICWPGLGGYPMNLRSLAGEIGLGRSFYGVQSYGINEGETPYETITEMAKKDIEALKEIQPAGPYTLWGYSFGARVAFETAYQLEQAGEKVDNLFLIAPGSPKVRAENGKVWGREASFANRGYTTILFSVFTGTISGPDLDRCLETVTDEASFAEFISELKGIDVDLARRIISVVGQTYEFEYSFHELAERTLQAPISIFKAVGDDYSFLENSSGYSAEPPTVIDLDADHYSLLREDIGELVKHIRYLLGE

PcpS [1] = target: PcpS (Pseudomonas aeruginosa, UniProt Q9I4H2); assay: BpsA coupled PPTase inhibition assay, PcpS; assay type: biochemical; settings: for IC50: 95% CI in parentheses; for Ki: Cheng-Prusoff, competitive inhibition
PcpS (Pseudomonas aeruginosa, UniProt Q9I4H2), sequence (Q9I4H2 entry or part of it): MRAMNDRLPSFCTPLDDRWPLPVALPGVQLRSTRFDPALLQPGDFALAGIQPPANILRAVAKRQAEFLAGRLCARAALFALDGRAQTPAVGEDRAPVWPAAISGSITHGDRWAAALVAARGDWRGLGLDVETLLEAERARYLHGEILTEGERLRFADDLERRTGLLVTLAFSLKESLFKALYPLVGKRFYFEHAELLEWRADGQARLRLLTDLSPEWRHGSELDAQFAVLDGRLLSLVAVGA

PP1183 = PP1183 (Pseudomonas putida, UniProt Q88NM4); assay: BpsA coupled PPTase inhibition assay, PP1183; assay type: biochemical, P. putida KT2440; settings: for IC50: IC50, PP1183, 95% CI in parentheses; for Ki: PP1183, Cheng-Prusoff, competitive inhibition
PP1183, sequence (Q88NM4 entry or part of it): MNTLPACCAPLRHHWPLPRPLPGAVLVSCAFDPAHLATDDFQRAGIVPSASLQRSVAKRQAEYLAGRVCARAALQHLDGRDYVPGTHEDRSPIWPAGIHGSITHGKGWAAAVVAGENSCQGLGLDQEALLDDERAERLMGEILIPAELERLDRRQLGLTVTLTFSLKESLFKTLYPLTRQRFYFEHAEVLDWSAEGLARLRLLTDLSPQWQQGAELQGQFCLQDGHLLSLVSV

Sfp = Sfp (Bacillus spizizenii, UniProt G4NQW2); assay: BpsA coupled PPTase inhibition assay, Sfp; assay type: biochemical, B. subtilis subsp. spizizenii ATCC6633; settings: for IC50: IC50, Sfp, 95% CI in parentheses; for Ki: Sfp, Cheng-Prusoff, competitive inhibition
Sfp, sequence (G4NQW2 entry or part of it): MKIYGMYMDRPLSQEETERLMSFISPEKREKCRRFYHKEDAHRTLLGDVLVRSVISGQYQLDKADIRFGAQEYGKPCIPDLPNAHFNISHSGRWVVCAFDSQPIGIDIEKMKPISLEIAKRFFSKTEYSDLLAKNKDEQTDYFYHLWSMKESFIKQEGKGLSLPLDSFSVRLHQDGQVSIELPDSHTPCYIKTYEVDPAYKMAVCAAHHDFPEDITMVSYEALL

PcpS [2] = assay: Screening of the LOPAC1280 library for PcpS inhibitors with the BpsA coupled assay; assay type: biochemical, P. aeruginosa; settings: compound approximately 18 μM; 0.18 μM PcpS
Procedure: 1.8 μL of each compound from a Lopac^1280 library plate was added to 30 μL of 10% DMSO in MQ using a CyBio CyBi-well, giving a final compound concentration of approximately 18 μM. Next 50 μl, of a master mix containing 5 μM Co-enzyme A, 1.66 μM BpsA, 20 mM MgCl2, 5 mM ATP, 8 mM L-Gln, 100 mM Tris-HCl pH 7.8 and MQ was added. To initiate the reaction 20 μL of PcpS at a final reaction concentration of 0.18 μM and MQ was added rapidly, using an automatic dispensing Pipette. The plate was then shaken for 10 seconds at 1000 rpm to mix the compounds. The plate was then read 25 times to measure the Absorbance at 590 nm (with 20 second intervals between each read) in an EnSpire plate reader at 25° C. […] Negative and positive controls were established in wells in these columns, and used to monitor the reaction. […] Both control reactions were run in triplicate.
1.8 μL of each compound from a Lopac^1280 library plate was added to 304 of 10% DMSO in MQ using a CyBio CyBi-well, giving a final compound concentration of approximately 18 μM. Next 50 μL of a master mix containing 5 μM Co-enzyme A, 1.66 μM BpsA, 20 mM MgCl2, 5 mM ATP, 8 mM L-Gln, 100 mM Tris-HCl pH 7.8 and MQ was added. […] The plate was then read 25 times to measure the Absorbance at 590 nm (with 20 second intervals between each read) in an EnSpire plate reader at 25° C. […]

all three PPTases = assay: BpsA coupled PPTase inhibition assay, summary over all three PPTases
Procedure: Each of the three PPTases was evaluated for inhibition across a two-fold serial dilution series of 6-NOBP (250-0.12 μM) with CoA concentration fixed at either 10 or 2.5 μM. […] Derived Ki values were most consistent between CoA concentrations when the Cheng-Prusoff equation for competitive inhibition was employed.
Triplicate two fold serial dilution series (250-0.12 μM) of the previously identified PPTase inhibitor 6-NOBP were established in a final volume of 50 ml 10% DMSO in a 96 wp. 100 μL of reaction mix (20 or 5 μM CoA, 5 mM ATP, 20 mM MgCl2, 8 mM L-Gln and 100 mM Tris-CL, 1.66 μM apo-BpsA, pH 7.8) was then added to each well. Reactions were then initiated by addition of 50 μL 0.32-1.0 μM PPTase in water to each well followed by mixing at 1000 rpm for 10 s. A590 values were then recorded and PPTase velocities determined as previously described.

PcpS [3] = assay: Qualitative assessment of PcpS inhibition relative to 6-NOBP; assay type: biochemical, P. aeruginosa; settings: each inhibitor 20 μM; 0.18 μM PcpS
Procedure: Duplicate wells with different inhibitors added. The No PcpS wells have ddH2O added instead of PcpS. The BpsA only wells have DMSO added instead of an inhibitor. The 6-NOBP wells have had 6-NOBP added at a final concentration of 20 μM. The Bay 11-7085 wells have had Bay 11-7085 added to a final concentration of 20 μM.
Bay 11-7085 was then serially diluted from 20 μM to 0.625 μM across the wells. The reaction was initiated by the addition of PcpS to a final concentration of 0.18 μM and indigoidine production was then monitored at 590 nm. Each concentration was tested in triplicate and the average of the three wells was taken to calculate the maximum velocity. The maximum velocity in each well was expressed as a percentage of the maximum velocity in the wells where no Bay11-7085 was present. For qualitative assessment of Bay11-7085 mediated inhibition of PcpS relative to 6-NOBP, duplicate wells were established with either 20 μM of each inhibitor or with DMSO added instead of an inhibitor (positive control). For a negative control, ddH2O was added instead of PcpS. Reactions were initiated by addition of 20 μL of PcpS at a final reaction concentration of 0.18 μM (or H2O for the negative control) using an automatic dispensing Pipette. The plate was then shaken for 10 seconds at 1000 rpm to mix the compounds, and incubated on the benchtop until the positive control wells had gone dark blue.

E. coli = assay type: cell-based; settings: high levels of active BpsA, excess L-Gln, extended time
Text: In one embodiment, activation of the NRPS BpsA then produces the dye, indigoidine. […] Due to this toxicity, E. coli cells expressing high levels of active BpsA in the presence of excess L-Gln for an extended period of time are not viable. Toxicity may be avoided by plating an E. coli reporter strain comprising a CNA expression construct on a selection medium lacking an inducer of BpsA expression. In one embodiment the inducer is IPTG.
We constructed plasmids that allowed IPTG regulated co-expression of a candidate PPTase and BpsA in E. coli BL21(DE3). To enable IPTG regulated co-expression the BpsA gene of S. lavendulae ATCC 11924 was cloned into pCDFDUET-1 (Novagen) and three candidate PPTases into the (origin of replication compatible) vector pET28a(+). […] In contrast, if IPTG was absent from the medium viable co-transformed cells were recovered with good efficiency (not shown). […] In order to circumvent this problem we employed auto-induction agar plates, prepared by addition of 1.5% agar to Studier ZYP-5052 auto-induction medium (Studier 2005). Use of auto-induction agar plates allowed for both rapid growth and efficient induction of pigment production following extended incubation at room temperature.
Initial trials were run using E. coli harbouring a P. putida PPTase expression plasmid. […]

[4] = Kuhn et al, 1965; cited from earlier work
[5] = Effect of pH on indigoidine stability (loss of colouration, A590); assay type: physicochemical; settings: culture supernatant, 50 mM sodium phosphate buffer, 20 min
Procedure: (A) Diluted sterile supernatant from an indigoidine producing culture was incubated for 20 min with 50 mM sodium phosphate buffer at each of the indicated pH values in triplicate. Loss of colouration was then assessed by measuring A590. Error bars are presented as +/− one standard deviation. (B) Indigoidine reactions differing only in the pH of the buffer used are shown.
The supernatant from BpsA-expressing cultures reached a much higher A590 (˜1.2) than the maximum achieved from any in vitro experiments (˜0.3) (not shown). Without wishing to be bound by theory, the inventors hypothesized that that since indigoidine produced and exported from a cell in vivo was effectively removed from exposure to intracellular enzymes, the loss of in vitro product may have been due to enzymatic degradation in the in vitro assay preparations. This could be due to BpsA itself, the activating PPTase or an undetected contaminating species. To test this possibility, filter sterilized culture supernatant containing indigoidine was incubated with various concentrations of each enzyme preparation used for in vitro assays. No difference in pigment levels resulted from this treatment. It was concluded that the loss of pigmentation seen in vitro was not enzyme catalysed. […] A more detailed analysis of the relationship between pH and pigment stability was then conducted. […]

## O=Nc1ccc2oc(=O)ccc2c1 [6-NOBP]
holo-BpsA
  IC50: 29.2 µM
PcpS [1]; 1.25 μM CoA
  IC50: 4.05 µM
  Ki: 3.1 µM
PcpS [1]; 5 μM CoA
  IC50: 10.8 µM
  Ki: 4.7 µM
PP1183; 1.25 μM CoA
  IC50: 3.7 µM
  Ki: 3.3 µM
PP1183; 5 μM CoA
  IC50: 9.81 µM
  Ki: 6.8 µM
Sfp; 1.25 μM CoA
  IC50: 2.11 µM
  Ki: 700 nM
Sfp; 5 μM CoA
  IC50: 9.06 µM
  Ki: 1000 nM
PcpS [2]
  Outcome in high throughput screen for PcpS inhibitors: weak PcpS inhibitor
All three PPTases; read-out: IC50 values, range over the three PPTases, CoA concentration set at 5 μM
  IC50: 9.1 to 10.8 µM
All three PPTases; read-out: K, values, range over the three PPTases, converted from IC50 with Km of each PPTase
  Ki: 0.5 to 7.5 µM

## CC(C)(C)c1ccc(S(=O)(=O)/C=C/C#N)cc1 [Bay11-7085]
PcpS [3]
  Qualitative inhibition of PcpS relative to 6-NOBP: clearly a stronger inhibitor of PcpS than 6-NOBP

## indigoidine
E. coli
  Toxicity to E. coli: toxic to E. coli over time
[4]
  Pigment stability versus pH (previous observations): unstable at alkaline pH
[5]
  Pigment stability versus pH: decolouration occurred to a greater extent at higher pH

Source: patent publication US20130260436A1, “Methods of Identifying and Characterizing Natural Product Gene Clusters” (Victoria LInk Limited, priority 2010, published 2013)
